Consider 18 compounds from patent US12187702B2, “Sulfonamideurea compounds” (Inflazome Limited, priority 2018, dated 2025).

Data set [1] is described as follows: PK, intravenous administration. In kind it is in vivo, male Sprague Dawley rats. To be noted: male, Sprague Dawley, plasma, rat; for clearance / half-life: dose per compound as in Table 3; for AUC: dose per compound as in Table 3 (0.08-1.86 mg/kg); for Vd: dose per compound as in Table 3, read-out: Vdss. The protocol:
(§1) Pharmacokinetic parameters were determined in male Sprague Dawley rats (Charles River, UK, 250-350 g; or Vital River Laboratory Animal Technology Co Ltd, Beijing, China, 7-9 weeks old). Animals were individually housed during the study and maintained under a 12 h light/dark cycle.
(§2) For intravenous administration, compounds were formulated as a solution in water or DMSO:PBS [10:90] in 2 mL/kg dosing volume and administered via tail or jugular vein. For oral administration, compounds were formulated as a solution in 0.5% w/v methyl cellulose in water in 5 mL/kg dosing volume and administered orally.
(§3) Serial blood samples (about 120-300 μL) were taken from each animal at each of 8 time-points post dose (0.083, 0.25, 0.5, 1, 2, 4, 8 and 24 h) or at each of 12 time-points post dose (0.03, 0.1, 0.17, 0.25, 0.5, 1, 2, 4, 6, 8, 12 and 24 h) or pre-dose and at each of 9 time-points post dose (0.25, 0.5, 1, 2, 4, 6, 8, 12 and 24 h). Samples were held on ice for no longer than 30 minutes before centrifugation (10,000 rpm (8,385 g) for 3 minutes; or 5,696 rpm (3,000 g) for 15 minutes) for plasma generation. Plasma was frozen on dry ice prior to bioanalysis. PK parameters were generated from LC-MS/MS data using Dotmatics or Phoenix WinNonlin 6.3 software.

For data set [2], the target named is T1, NLRP3 (Homo sapiens, UniProt Q96P20). In words: Human whole blood IL-1β release assay (LPS + nigericin, AlphaLisa). Details: Plate out 80 μl of whole blood containing 1 μg/ml of LPS; from tissue; host or cells: human whole blood from healthy donors. In kind it is cell-based. Summed up: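 Healthy-donor Li-heparin whole blood containing 1 μg/ml LPS incubated with compound (8-point half-log dilution, 10 μM top) for 3 h at 37 °C, then with 10 μM nigericin for 1 h. Supernatant IL-1β measured by AlphaLisa; IC50 from 4-parameter variable-slope fit.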
T1 sequence (Q96P20 whole entry): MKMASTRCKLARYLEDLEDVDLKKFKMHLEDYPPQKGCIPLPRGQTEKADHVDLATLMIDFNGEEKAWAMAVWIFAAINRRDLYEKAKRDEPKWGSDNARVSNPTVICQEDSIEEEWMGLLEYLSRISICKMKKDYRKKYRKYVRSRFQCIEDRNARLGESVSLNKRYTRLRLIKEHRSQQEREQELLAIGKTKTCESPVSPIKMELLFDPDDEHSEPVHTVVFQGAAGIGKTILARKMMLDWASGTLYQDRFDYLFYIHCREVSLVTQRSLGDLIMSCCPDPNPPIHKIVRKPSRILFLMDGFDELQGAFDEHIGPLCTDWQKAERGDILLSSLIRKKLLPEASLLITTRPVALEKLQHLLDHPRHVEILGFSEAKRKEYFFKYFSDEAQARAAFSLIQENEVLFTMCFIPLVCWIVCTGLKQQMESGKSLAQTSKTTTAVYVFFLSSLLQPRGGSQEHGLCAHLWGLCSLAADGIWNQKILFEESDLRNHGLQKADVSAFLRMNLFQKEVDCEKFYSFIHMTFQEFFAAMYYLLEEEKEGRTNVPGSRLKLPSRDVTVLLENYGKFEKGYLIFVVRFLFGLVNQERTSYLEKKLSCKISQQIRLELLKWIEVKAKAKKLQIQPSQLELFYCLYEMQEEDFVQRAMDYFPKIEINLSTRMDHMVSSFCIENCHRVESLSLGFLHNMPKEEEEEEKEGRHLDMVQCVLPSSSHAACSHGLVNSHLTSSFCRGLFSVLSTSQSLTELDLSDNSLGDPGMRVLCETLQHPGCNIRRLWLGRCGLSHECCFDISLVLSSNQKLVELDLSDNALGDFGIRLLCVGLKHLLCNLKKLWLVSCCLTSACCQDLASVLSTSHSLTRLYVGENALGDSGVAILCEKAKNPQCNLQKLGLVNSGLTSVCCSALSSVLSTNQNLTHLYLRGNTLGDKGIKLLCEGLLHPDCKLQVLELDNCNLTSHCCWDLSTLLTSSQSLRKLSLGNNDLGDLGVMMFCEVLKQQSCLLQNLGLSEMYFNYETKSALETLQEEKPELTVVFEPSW
(In general: Bead proximity is the source of the signal in Alpha formats.)

Data set [3] addresses T1, NLRP3. In words: THP-1 cells pyroptosis assay (LPS + nigericin, resazurin read-out). Further details: Seed THP-1 cells (25,000 cells/well) containing 1.0 μg/ml LPS; host or cells: THP-1 cells. In kind it is cell-based. The gist of the method:
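THP-1 cells (25,000/well) primed with 1 μg/ml LPS in serum-free RPMI, treated 3 h with compound (8-point half-log series, 10 μM top, 0.1% DMSO), then 5 μM nigericin for 1 h at 37 °C. Viability read by 100 μM resazurin fluorescence after 1-2 h; IC50 from 4-parameter fit.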

The nature of data set [4]: PK, oral administration. To be noted: male, Sprague Dawley, plasma, rat, 3 mg/kg. Type of data set: in vivo, male Sprague Dawley rats. How it is done:
as §1, §2, §3

[5] abbreviates: human whole blood, 1 μg/ml LPS, 10 μM nigericin, IL-1β release, read-out: HWB IC50.
Setting [6] is: THP-1 cells, 1 μg/ml LPS, 5 μM nigericin, NLRP3 inhibitory activity, read-out: THP IC50.

The structures appear in SMILES notation. Where a name gives a salt, the structure may show the parent alone. Bounds are passed on as bounds.

Broadly, the clearance is the volume of plasma or blood freed of the substance per unit of time. A high value points to efficient removal. What is called half-life is the time needed for the level to fall by half in the phase considered. Read a low half-life as rapid decline. As a reminder, the AUC is concentration integrated over time. Low values mean less exposure, high ones more exposure. For orientation: IC50 means the midpoint of a concentration-inhibition curve. As for `CN(C)CCN(C)S(=O)(=O)NC(=O)Nc1c2c(cc3c1CCC3)CCC2` [Example 6, potassium salt], in data set [1], the clearance stood at 2.3 mL/min/kg, the half-life is 2.7 h, the AUC was determined as 7270 ng·h/mL and the Vd stood at 0.35 L/kg. The IC50 in data set [2] (setting [5]) is below 500 nM. The IC50 in data set [3] (setting [6]) is below 500 nM.
Turning to `CN(C)CCNS(=O)(=O)NC(=O)Nc1c2c(cc3c1CCC3)CCC2` [Example 8, 3-(N-(2-(Dimethylamino)ethyl)sulfamoyl)-1-(1,2,3,5,6,7-hexahydro-s-indacen-4-yl)urea], in data set [1], the clearance worked out at 7.3 mL/min/kg, the half-life is 4 h, the AUC was 2290 ng·h/mL and the Vd came to 0.61 L/kg. In addition, the IC50 in data set [2] (setting [5]) was below 500 nM. Besides, the IC50 in data set [3] (setting [6]) is below 1000 nM.
Turning to `CN1CCC(N(C)S(=O)(=O)NC(=O)Nc2c3c(cc4c2CCC4)CCC3)C1` (centres unmarked) [Example 11, 3-(N-Methyl-N-(1-methylpyrrolidin-3-yl)sulfamoyl)-1-(1,2,3,5,6,7-hexahydro-s-indacen-4-yl)urea, potassium salt], in data set [1], the clearance was 2.9 mL/min/kg, the half-life is 2.7 h, the AUC stood at 5660 ng·h/mL and the Vd worked out at 0.59 L/kg. In addition, the IC50 in data set [2] (setting [5]) is below 500 nM. Moreover, the IC50 in data set [3] (setting [6]) is below 500 nM.
`CN1CCCCC1CNS(=O)(=O)NC(=O)Nc1c2c(cc3c1CCC3)CCC2` (centres unmarked) [Example 20, 3-(N-((1-Methylpiperidin-2-yl)methyl)sulfamoyl)-1-(1,2,3,5,6,7-hexahydro-s-indacen-4-yl)urea, potassium salt]: in data set [1], the clearance was 7.1 mL/min/kg, the half-life is 1.2 h, the AUC was 2360 ng·h/mL and the Vd was 0.4 L/kg. Moreover, the IC50 in data set [2] (setting [5]) is below 500 nM. Also, in data set [3] (setting [6]), the IC50 is below 500 nM.
As to `CC(C)N1CCC(N(C)S(=O)(=O)NC(=O)Nc2c3c(cc4c2CCC4)CCC3)C1` (centres unmarked) [Example 36, 3-(N-(1-isopropylpyrrolidin-3-yl)-N-methylsulfamoyl)-1-(1,2,3,5,6,7-hexahydro-s-indacen-4-yl)urea, potassium salt], in data set [1], the clearance came out at 2.8 mL/min/kg, the half-life was 1.1 h, the AUC is 5910 ng·h/mL and the Vd was determined as 0.23 L/kg. For the same compound, in data set [2] (setting [5]), the IC50 is below 1000 nM. Also, the IC50 in data set [3] (setting [6]) is below 500 nM.
In the case of `CN1CC[C@@H](N(C)S(=O)(=O)NC(=O)Nc2c3c(cc4c2CCC4)CCC3)C1` [Example 66, 3-((R)—N-Methyl-N-(1-methylpyrrolidin-3-yl)sulfamoyl)-1-(1,2,3,5,6,7-hexahydro-s-indacen-4-yl)urea, potassium salt], in data set [1], the clearance was 3.7 mL/min/kg, the half-life was 3.44 h, the AUC is 6760 ng·h/mL and the Vd stood at 0.43 L/kg. The IC50 in data set [2] (setting [5]) is below 500 nM. In addition, in data set [3] (setting [6]), the IC50 was below 500 nM.
With `CN1CCC[C@@H]1CN(C)S(=O)(=O)NC(=O)Nc1c2c(cc3c1CCC3)CCC2` [Example 95, 3-((R)—N-Methyl-N-((1-methylpyrrolidin-2-yl)methyl)sulfamoyl)-1-(1,2,3,5,6,7-hexahydro-s-indacen-4-yl)urea, potassium salt], the IC50 in data set [2] (setting [5]) and in data set [3] (setting [6]) was below 500 nM each time.
With `CN1CCC2CN(S(=O)(=O)NC(=O)Nc3c4c(cc5c3CCC5)CCC4)CC21` (centres unmarked) [Example 96, N-((1,2,3,5,6,7-Hexahydro-s-indacen-4-yl)carbamoyl)-1-methylhexahydropyrrolo[3,4-b]pyrrole-5(1H)-sulfonamide, potassium salt], in data set [1], the clearance came out at 5.7 mL/min/kg, the half-life is 1.14 h, the AUC was found to be 5150 ng·h/mL and the Vd came out at 0.45 L/kg. For the same compound, the IC50 in data set [2] (setting [5]) is below 500 nM. For the same compound, the IC50 in data set [3] (setting [6]) was below 500 nM.
In the case of `CN1CCCC2CN(S(=O)(=O)NC(=O)Nc3c4c(cc5c3CCC5)CCC4)CC21` (centres unmarked) [Example 97, N-((1,2,3,5,6,7-Hexahydro-s-indacen-4-yl)carbamoyl)-1-methyloctahydro-6H-pyrrolo[3,4-b]pyridine-6-sulfonamide], the IC50 in data set [2] (setting [5]) and in data set [3] (setting [6]) was below 500 nM each time.
On to `CN1CCC2CCN(S(=O)(=O)NC(=O)Nc3c4c(cc5c3CCC5)CCC4)CC21` (centres unmarked) [Example 98, N-((1,2,3,5,6,7-Hexahydro-s-indacen-4-yl)carbamoyl)-1-methyloctahydro-6H-pyrrolo[2,3-c]pyridine-6-sulfonamide], for which the IC50 in data set [2] (setting [5]) and in data set [3] (setting [6]) was below 5000 nM each time.
Consider `COc1cc(-c2ccc3c(c2NC(=O)NS(=O)(=O)N2CC4CCN(C)C4C2)CCC3)ccn1` (centres unmarked) [Example 106], for which, in data set [1], the clearance was 6 mL/min/kg, the half-life is 5.61 h, the AUC is 5150 ng·h/mL and the Vd worked out at 0.84 L/kg.
Turning to `CC(C)c1cc(F)cc(-c2ccncc2)c1NC(=O)NS(=O)(=O)N(C)C1CCN(C)C1` (centres unmarked) [Example 108], the IC50 in data set [2] (setting [5]) and in data set [3] (setting [6]) was below 500 nM in each case.
Usually CL/F stands for clearance divided by bioavailability, as obtained after extravascular dosing. Usually Cmax stands for the highest concentration seen after dosing. For orientation: Tmax means the time from dosing to the highest level. What is called bioavailability is the share of a dose that reaches the circulation, judged against a reference dose that is usually intravenous. Low values mean little systemic uptake, high ones much systemic uptake. On to `COc1cc(-c2ccc3c(c2NC(=O)NS(=O)(=O)N(C)[C@@H]2CCN(C)C2)CCC3)ccn1` [Example 110, (R)-3-(N-Methyl-N-(1-methylpyrrolidin-3-yl)sulfamoyl)-1-(5-(2-methoxypyridin-4-yl)-2,3-dihydro-1H-inden-4-yl)urea, potassium salt], for which, in data set [1], the clearance came out at 20 mL/min/kg, the half-life was 3.9 h, the AUC is 835 ng·h/mL and the Vd was 1.6 L/kg. Besides, the IC50 in data set [2] (setting [5]) is below 500 nM. In addition, in data set [4], the AUC came to 1020 ng·h/mL, the CL/F was 50 mL/min/kg, the Cmax worked out at 277 ng/mL and the Tmax was determined as 0.67 h. In addition, in data set [4], the bioavailability was 41% and the half-life was 3.4 h. The half-maximal inhibitory concentration (IC50) in data set [3] (setting [6]) is below 500 nM.
Take `COc1cc(-c2ccc3c(c2NC(=O)NS(=O)(=O)N(C)[C@H]2CCN(C)C2)CCC3)ccn1` [Example 111, (S)-3-(N-methyl-N-(1-methylpyrrolidin-3-yl)sulfamoyl)-1-(5-(2-methoxypyridin-4-yl)-2,3-dihydro-1H-inden-4-yl)urea, potassium salt]: in data set [1], the clearance came to 17 mL/min/kg, the half-life is 4.8 h, the AUC was 979 ng·h/mL and the Vd came to 1.3 L/kg. Moreover, in data set [2] (setting [5]), the half-maximal inhibitory concentration (IC50) is below 500 nM. In data set [4], the AUC came to 1380 ng·h/mL, the CL/F stood at 38 mL/min/kg, the concentration peaked (Cmax) at 318 ng/mL and the Tmax was 0.67 h. For the same compound, in data set [4], the bioavailability was found to be 47% and the half-life is 4 h. In addition, in data set [3] (setting [6]), the IC50 was below 500 nM.
In the case of `CN1CCC[C@@H]1CN(C)S(=O)(=O)NC(=O)Nc1c2c(cc3c1CCC3)C=CC2` [Example 112, (R)—(N-Methyl-N-((1-methylpyrrolidin-2-yl)methyl)sulfamoyl)((1,2,3,5-tetrahydro-s-indacen-4-yl)carbamoyl)amide, potassium salt], the IC50 in data set [2] (setting [5]) was below 5000 nM; in data set [3] (setting [6]), below 1000 nM.
Turning to `Cc1cc2c(c(NC(=O)NS(=O)(=O)N(C)C)c1-c1ccnc(OC3CCN(C)CC3)c1)CCC2` [Example 113, N-((6-Methyl-5-(2-((1-methylpiperidin-4-yl)oxy)pyridin-4-yl)-2,3-dihydro-1H-inden-4-yl)carbamoyl)N,N-dimethylsulfamide], the IC50 in data set [2] and in data set [3] was below 500 nM throughout.
For the compound `COc1cc(-c2c(C)cc3c(c2NC(=O)NS(=O)(=O)N(C)C)CCC3)ccn1` [Example 114, N-((5-(2-Methoxypyridin-4-yl)-6-methyl-2,3-dihydro-1H-inden-4-yl)carbamoyl)(N,N-dimethylsulfamoyl)amide], the IC50 in data set [2] (setting [5]) was below 1000 nM; in data set [3] (setting [6]) it was below 500 nM.
As for `CN1CCC[C@H]1CN(C)S(=O)(=O)NC(=O)Nc1c2c(cc3c1CCC3)CCC2` [Example 115, 3-((S)—N-Methyl-N-((-1-methylpyrrolidin-2-yl)methyl)sulfamoyl)-1-(1,2,3,5,6,7-hexahydro-s-indacen-4-yl)urea, sodium salt], the IC50 in data set [2] (setting [5]) was below 1000 nM; in data set [3] (setting [6]), below 500 nM.
